Calls of active or inactive are those of the source.
Tests used:
[1] = target: T1, Endoribonuclease toxin MazF (Escherichia coli K-12, UniProt P0AE70); assay: activation of MazEF endoribonuclease cleavage – biochemical, fluorescence, single-stranded RNA substrate, uHTS hits, dose response (AID 588481); format: functional
T1 sequence (P0AE70 whole entry): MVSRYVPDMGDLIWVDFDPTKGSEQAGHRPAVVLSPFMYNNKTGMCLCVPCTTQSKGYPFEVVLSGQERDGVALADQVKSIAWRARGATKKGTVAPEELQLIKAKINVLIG

Estrogen receptor [2] = target: T2, Estrogen receptor (Homo sapiens, UniProt P03372); assay: ERα coactivator recruitment enhancers – biochemical, TR-FRET, ERα LBD, dose response (AID 737)
T2 sequence (P03372 whole entry): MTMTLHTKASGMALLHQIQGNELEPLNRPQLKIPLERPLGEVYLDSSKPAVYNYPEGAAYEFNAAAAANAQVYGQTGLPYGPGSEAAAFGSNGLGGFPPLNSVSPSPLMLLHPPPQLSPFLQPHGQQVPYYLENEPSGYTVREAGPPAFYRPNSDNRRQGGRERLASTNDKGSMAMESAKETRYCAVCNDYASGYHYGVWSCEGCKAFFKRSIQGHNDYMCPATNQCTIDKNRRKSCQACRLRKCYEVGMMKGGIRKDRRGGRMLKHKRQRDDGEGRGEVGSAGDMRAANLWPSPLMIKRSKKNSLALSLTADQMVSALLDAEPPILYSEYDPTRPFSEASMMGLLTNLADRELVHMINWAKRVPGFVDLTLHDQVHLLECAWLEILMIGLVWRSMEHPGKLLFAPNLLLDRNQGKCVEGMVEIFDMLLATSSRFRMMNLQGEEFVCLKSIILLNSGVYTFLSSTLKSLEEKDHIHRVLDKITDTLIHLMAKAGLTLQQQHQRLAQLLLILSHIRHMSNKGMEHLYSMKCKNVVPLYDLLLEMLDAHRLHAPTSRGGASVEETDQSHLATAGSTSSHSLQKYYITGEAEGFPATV

[3] = target: T1, Endoribonuclease toxin MazF; assay: substrate-only fluorescence increase artefacts – biochemical, single-stranded RNase substrate, counter-screen for MazEF activator project, dose response (AID 588502); format: functional
[4] = viability loss in HEK293 cells – cell-based, plate reader, cherry-picked samples, cytotoxicity control, dose response (AID 743446); format: functional
[5] = target: T3, Luciferin 4-monooxygenase (Photinus pyralis, UniProt P08659); assay: Counter Screen for Luciferase-based Assay Positives. [Related pubchem assays: 620, 618, 411 ]
T3 sequence (P08659 whole entry): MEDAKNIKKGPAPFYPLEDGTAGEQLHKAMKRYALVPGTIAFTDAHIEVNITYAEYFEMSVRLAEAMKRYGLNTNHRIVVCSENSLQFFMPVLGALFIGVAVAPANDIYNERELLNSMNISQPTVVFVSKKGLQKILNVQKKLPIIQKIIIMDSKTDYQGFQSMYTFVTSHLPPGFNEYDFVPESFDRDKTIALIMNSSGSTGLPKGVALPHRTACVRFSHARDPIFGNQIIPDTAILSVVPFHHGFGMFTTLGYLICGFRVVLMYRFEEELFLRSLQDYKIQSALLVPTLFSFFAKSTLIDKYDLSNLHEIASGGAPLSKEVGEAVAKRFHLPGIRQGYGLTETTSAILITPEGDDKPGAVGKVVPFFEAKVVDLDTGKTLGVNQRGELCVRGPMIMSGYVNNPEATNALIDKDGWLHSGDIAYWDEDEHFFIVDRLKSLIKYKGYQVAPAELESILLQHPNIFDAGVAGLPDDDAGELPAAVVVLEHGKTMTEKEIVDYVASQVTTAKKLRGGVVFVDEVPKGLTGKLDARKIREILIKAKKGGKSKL

[6] = blockers of bursicon-stimulated LGR2 cAMP reporter – cell-based, HEK293, CRE-luciferase reporter, cherry pick, set 2, dose response (AID 743343); format: functional;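 also: transfected cells were stimulated with diluted bursicon conditioned medium after compound addition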
HT-1080 = assay: HT1080 cell viability loss – fluorescence readout (AID 620); format: functional, cell-based; settings: Homo sapiens
[7] = blockade of melanocortin 4 receptor signaling – cell-based, plate reader, cherry pick, counter-screen for LGR2 antagonist project, dose response (AID 743444); format: functional;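 also: transfected HEK 293 cells stimulated with alpha-MSH peptide; potency of inhibitors of the alpha-MSH evoked signal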
[8] = A549 cell cytotoxicity, dose response, cytotoxicity control, plate reader, cherry-pick, antagonist series (AID 743412); format: functional, cell-based
[9] = toxicity toward HepG2 liver cells – cell-based, plate reader, cherry-pick, antagonist series, cytotoxicity control, dose response (AID 743416); format: functional
BJ [10] = assay: cells; format: functional, cell-based; settings: Homo sapiens
[11] = Luminescence Cell-Based Dose Response HTS to Identify Inhibitors of 5'UTR Stem-Loop Driven Prion Protein mRNA Translation in H4 Neuroglioblastoma Cells. [Related pubchem assays: 1827 (Project Summary), 1813 (Primary HTS)]; format: functional
[12] = target: T3, Luciferin 4-monooxygenase; assay: inhibition of purified Photinus pyralis luciferase – biochemical, luminescence, dose response (AID 1891)
BJ [13] = assay: BJ-TERT-LT-ST fibroblast viability loss – cell-based, RAS-independent, luminescence, dose response (AID 1935); format: functional; settings: Homo sapiens;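 also: BJ fibroblasts immortalized with TERT plus LT and ST oncogenes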
[14] = target: T4, Heat shock factor protein 1 (Mus musculus, UniProt P38532); assay: decrease of HSF1-responsive luciferase luminescence – cell-based, NIH3T3, dose retest, confirmation (AID 2382); format: functional;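 also: NIH3T3 fibroblasts with HSF1-driven luciferase reporter stressed by proteasome inhibitor MG132; luminescence from HSF1-driven luciferase expression after 8 hours of MG132 stress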
T4 sequence (P38532 whole entry): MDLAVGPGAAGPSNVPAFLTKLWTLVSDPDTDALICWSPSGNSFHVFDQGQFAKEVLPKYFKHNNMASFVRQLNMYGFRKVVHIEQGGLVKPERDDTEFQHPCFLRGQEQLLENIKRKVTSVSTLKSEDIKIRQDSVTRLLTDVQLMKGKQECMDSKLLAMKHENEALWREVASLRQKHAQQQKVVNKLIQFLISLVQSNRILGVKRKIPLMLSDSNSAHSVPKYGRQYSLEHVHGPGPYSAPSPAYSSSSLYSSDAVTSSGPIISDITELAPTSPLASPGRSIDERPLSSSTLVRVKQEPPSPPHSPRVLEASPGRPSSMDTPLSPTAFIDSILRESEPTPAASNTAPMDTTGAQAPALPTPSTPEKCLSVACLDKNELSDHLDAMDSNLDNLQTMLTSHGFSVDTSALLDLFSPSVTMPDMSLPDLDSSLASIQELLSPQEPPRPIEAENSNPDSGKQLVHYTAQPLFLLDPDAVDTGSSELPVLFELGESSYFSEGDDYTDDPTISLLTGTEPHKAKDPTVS

[15] = Luminescence-based counterscreen assay for KLF5 inhibitors: dose response cell-based high throughput screening assay to identify cytotoxic compounds using the IEC-6 intestinal epithelial cell line. [Related pubchem assays: 1700 (Primary screen.), 1834 (Confirmation screen.), 1858 (Summary AID.), 1905 (Counterscreen.)]; format: functional
BJ [16] = assay: BJ-TERT fibroblast viability loss – cell-based, RAS-independent, luminescence, dose response (AID 1933); format: functional; settings: Homo sapiens
[17] = target: T5, Oxysterols receptor LXR-beta (Homo sapiens, UniProt P55055); format: functional, cell-based;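 also: agonist activity at LXR measured by a cell-based luminescence readout across a dose range, run as a counterscreen for daf-12 agonists; HEK293 cells with Gal4-LXR fusion and GAL4-driven luciferase reporter; potency for activation of Gal4-LXR reporter so compounds are agonists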
T5 sequence (P55055 whole entry): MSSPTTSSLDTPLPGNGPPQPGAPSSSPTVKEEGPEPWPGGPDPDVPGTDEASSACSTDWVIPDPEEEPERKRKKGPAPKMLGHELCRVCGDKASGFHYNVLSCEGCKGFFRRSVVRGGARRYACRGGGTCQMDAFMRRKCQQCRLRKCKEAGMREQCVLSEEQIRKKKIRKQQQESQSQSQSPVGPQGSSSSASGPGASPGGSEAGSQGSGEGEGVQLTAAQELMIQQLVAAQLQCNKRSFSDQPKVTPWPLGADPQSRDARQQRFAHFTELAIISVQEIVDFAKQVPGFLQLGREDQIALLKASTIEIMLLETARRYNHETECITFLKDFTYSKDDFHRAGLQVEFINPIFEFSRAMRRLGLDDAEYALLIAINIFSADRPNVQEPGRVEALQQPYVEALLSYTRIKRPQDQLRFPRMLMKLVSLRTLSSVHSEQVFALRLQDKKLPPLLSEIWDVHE

[18] = Luminescence Cell-Based Dose Confirmation HTS to Identify Inhibitors of Platelet Dense Granule Release. [Related pubchem assays: 1663 (Primary HTS), 1678 (Summary of Project)]; format: functional
HEK293 = assay: EBV LMP1 TES2 canonical NF-kB signalling blockers – cell-based, HEK293, luciferase, cherry-pick, dose response (AID 588343); format: functional; settings: Homo sapiens
BJ [19] = assay: growth inhibition of engineered Ras-driven BJ cells – cell-based, alamar blue fluorescence, cherrypicked samples, dose response (AID 2631); format: functional; settings: Homo sapiens;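 also: confirmatory dose-response assay in RAS-dependent BJ fibroblasts engineered with TERT, LT and ST, with cytotoxicity read by fluorescence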
[20] = DRD fibroblast viability loss – cell-based, non-viral oncogenic, luminescence, dose response (AID 1934); format: functional; settings: Homo sapiens
[21] = alpha-synuclein stem-loop luciferase translation blockers – H4 neuroglioma cells, luminescence, confirmation (AID 1988); format: functional, cell-based
[22] = Counterscreen for IDE inhibitors: Luminescence-based cell-based high throughput dose response assay to identify compounds that are cytotoxic to HEK cells. [Related pubchem assays: 434962 (Primary screen (IDE inhibitors in singlicate)), 449730 (Counterscreen (Cytotoxicity in triplicate)), 435028 (Confirmation (IDE inhibitors in triplicate)) …; format: functional; settings: HEK293
Insulin-degrading enzyme = target: T6, Insulin-degrading enzyme (Homo sapiens, UniProt P14735); assay: Dose Response: Fluorescence polarization-based cell-based high throughput dose response assay for inhibitors of insulin-degrading enzyme (IDE). [Related pubchem assays: 434962 (Primary screen (IDE inhibitors in singlicate)), 449730 (Counterscreen (Cytotoxicity in triplicate)), 435028 (Confirmation (IDE inhibitors in triplicate)), 434984 (Summary …; format: functional
T6 sequence (P14735 whole entry): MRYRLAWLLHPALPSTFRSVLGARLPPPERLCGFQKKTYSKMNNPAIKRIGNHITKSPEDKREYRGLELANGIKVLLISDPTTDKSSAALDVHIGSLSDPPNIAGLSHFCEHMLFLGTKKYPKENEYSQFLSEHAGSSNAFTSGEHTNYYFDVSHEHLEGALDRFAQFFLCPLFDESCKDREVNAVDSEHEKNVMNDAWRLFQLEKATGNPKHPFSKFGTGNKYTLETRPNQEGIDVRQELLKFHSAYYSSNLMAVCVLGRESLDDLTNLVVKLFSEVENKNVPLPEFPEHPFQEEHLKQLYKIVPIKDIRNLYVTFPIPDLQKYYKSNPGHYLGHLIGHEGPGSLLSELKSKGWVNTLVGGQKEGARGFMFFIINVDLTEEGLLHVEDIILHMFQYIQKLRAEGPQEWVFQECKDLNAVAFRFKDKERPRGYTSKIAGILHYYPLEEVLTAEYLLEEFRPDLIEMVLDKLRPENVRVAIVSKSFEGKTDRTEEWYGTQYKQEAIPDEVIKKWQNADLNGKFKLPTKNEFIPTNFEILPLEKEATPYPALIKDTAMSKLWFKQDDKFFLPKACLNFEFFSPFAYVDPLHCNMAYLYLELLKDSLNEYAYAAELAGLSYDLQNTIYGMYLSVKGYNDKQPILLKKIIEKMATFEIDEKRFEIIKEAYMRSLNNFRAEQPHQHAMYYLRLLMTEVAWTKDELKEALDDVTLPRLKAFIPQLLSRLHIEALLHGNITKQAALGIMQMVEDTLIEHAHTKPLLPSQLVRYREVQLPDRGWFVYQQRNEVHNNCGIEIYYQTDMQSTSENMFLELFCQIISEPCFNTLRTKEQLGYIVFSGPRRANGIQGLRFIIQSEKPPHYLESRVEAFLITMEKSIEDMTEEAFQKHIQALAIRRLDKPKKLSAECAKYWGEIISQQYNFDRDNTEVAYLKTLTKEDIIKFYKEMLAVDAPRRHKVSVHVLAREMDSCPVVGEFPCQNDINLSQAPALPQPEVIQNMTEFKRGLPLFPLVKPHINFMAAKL

[23] = A Cell Based Secondary Assay To Explore Cytotoxicity of Compounds that Sensitize Mycobacterium Tuberculosis to Beta-Lactam Antibiotics.; format: functional
Estrogen receptor [24] = target: T2, Estrogen receptor

Which EC50 [1] does the source give for `CCc1ccc2nc(SCC(=O)N3CC(=O)Nc4ccccc43)c(C#N)cc2c1` here?
The EC50 was > 99 µM (inactive).

What about the EC50 (Estrogen receptor [2]) of the same molecule?
Its EC50 is 32.9 µM (not active).

What about the EC50 [3] of the same molecule?
The EC50 was > 99 µM (inactive).

For `CCOc1ccc(C(=O)NCCc2ccccc2)cc1`, which AC50 [4] is on record?
Its AC50 is > 52 µM (inactive).

What about the EC50 [5] of the same molecule?
The EC50 was 1.09 µM (active).

What about the AC50 [6] of the same molecule?
Its AC50 is 4.83 µM (active).

What about the EC50 (HT-1080) of the same molecule?
The EC50 was > 50 µM (not active).

And the AC50 [7]?
Its AC50 is 3.43 µM (active).

What about the AC50 [8] of the same molecule?
Its AC50 is > 52 µM (inactive).

With `CCNC(S)=NNC(=O)c1cc(-c2ccc(OCC)cc2)nc2ccccc12` as the molecule, how does the AC50 [9] read?
The AC50 was 49.6 µM (active).

And the EC50 (BJ [10])?
The EC50 was 3.3 µM (active).

What about the EC50 [11] of the same molecule?
The EC50 was 16.1 µM (active).

And the AC50 [6]?
Its AC50 is 3.19 µM (active).

And the EC50 [12]?
The EC50 was < 0.088 µM (active).

And the EC50 (BJ [13])?
The EC50 was > 150 µM (not active).

What about the EC50 [14] of the same molecule?
The EC50 was 19 µM (active).

And the IC50 [15]?
The IC50 was > 39.8 µM (not active).

And the EC50 (BJ [16])?
The EC50 was 8.23 µM (inconclusive).

What about the AC50 [7] of the same molecule?
Its AC50 is 4.32 µM (active).

What about the EC50 [17] of the same molecule?
Its EC50 is > 67.5 µM (inactive).

And the EC50 [18]?
Its EC50 is 1.08 µM (active).

And the AC50 (HEK293)?
The AC50 was 1.7 µM (active).

What about the EC50 (BJ [19]) of the same molecule?
Its EC50 is > 133 µM (inactive).

What about the EC50 [20] of the same molecule?
The EC50 was 11.7 µM (active).

And the AC50 [8]?
Its AC50 is > 52 µM (inactive).

And the EC50 [21]?
The EC50 was 10.4 µM (active).

Which IC50 [22] does the source give for `CCOc1ccccc1-n1c(SCC(=O)N2CCCc3ccccc32)nnc1-c1cccnc1` here?
The IC50 was 24.8 µM (not active).

What about the IC50 (Insulin-degrading enzyme) of the same molecule?
The IC50 was > 55.9 µM (not active).

With `COC(=O)/C(=C\Nc1ccc(Cl)c2ccccc12)c1ncc(C(F)(F)F)cc1Cl` as the molecule, how does the CC50 [23] read?
The CC50 was > 40 µM (active).

And the IC50 (Estrogen receptor [24])?
The IC50 was > 50 µM (not active).
